Reference: patent publication EP0532706B1, “REDUCTION OF CARDIOVASCULAR VESSEL OCCLUSIONS WITH ASCORBATE AND LIPOPROTEIN (a) BINDING INHIBITORS” (priority 1990, dated 1991)

How the values were obtained:
in vivo = type: in vivo, guinea pig
Experimental: Blood was drawn by ear puncture from the anesthetized animals and collected into EDTA containing tubes at the beginning, after 10 days, and after 3 weeks, when the animals were sacrificed. Plasma was stored at -80°C until analyzed. Lp(a) was detected in the plasma of the guinea pigs by use of SDS-polyacrylamide gels according to Neville ((1971) J. Biol. Chem. 246:6328-6334) followed by Western blotting according to Beisiegel, et al. ((1982) J. Biol. Chem. 257:13150-13156). Forty »l of plasma and 20 mg of arterial wall homogenate were applied in delipidated form per lane of the gel. The immunodetection of apo(a) was performed using a polyclonal anti-human apo(a) antibody (Immuno, Vienna, Austria) followed by a rabbit anti-sheep antibody (Sigma) and the gold-conjugated goat anti-rabbit antibody with subsequent silver enhancement (Bio-Rad). The determinations of cholesterol and triglycerides were done at California Veterinary Diagnostics (Sacramento) using the enzyme assay of Boehringer Mannheim. The amount of plasma ascorbate was determined by the dinitrophenylhydrazine method according to Schaffer, et al. ((1955) J. Biol. Chem. 212:59).
To confirm the data obtained in Example 1, a second guinea pig experiment was conducted, using 33 male animals with a mean weight of 550 g and an approximate age of 5 months. One group of 8 animals served as a control and received 40 mg ascorbate/kg BW/d (group A). To induce hypoascorbemia 16 animals were fed 2 mg ascorbate/kg BW/d (group B). Group A and half of the animals of group B (progression sub-group) were sacrificed after 5 weeks as described above. Half of group B was kept for 2 more weeks, receiving daily intraperitoneal injection of 1.3 g Na-ascorbate/kg BW/d as a daily intra peritoneal injection with the intention to reduce the extent of atherosclerosis lesions. After this regression period these animals also were sacrificed.

atherosclerotic lesions = assay: Example 2: area of aortic atherosclerotic lesions in guinea pig groups; type: in vivo
From the text: At necropsy the animals were anesthetized with metophase and exsanguinated. The aorta, heart and various other organs were taken for biochemical and histological analysis. The aorta was excised, the adventitial fat carefully removed, and the vessel was opened longitudinally. Subsequently the aorta was placed on a dark metric paper and a color slide was taken. The picture was projected and thereby magnified by an approximate factor of 10. The circumference of the ascending aorta, the aortic arch and thoracic aorta, as well as the atherosclerotic lesions in this area, were marked and measured with a digitalized planimetry system. The degree of atherosclerosis was expressed by the ratio of plaque area in relation to the total aortic area defined.
To confirm the data obtained in Example 1, a second guinea pig experiment was conducted, using 33 male animals with a mean weight of 550 g and an approximate age of 5 months. One group of 8 animals served as a control and received 40 mg ascorbate/kg BW/d (group A). To induce hypoascorbemia 16 animals were fed 2 mg ascorbate/kg BW/d (group B). Group A and half of the animals of group B (progression sub-group) were sacrificed after 5 weeks as described above. […]

[1] = Regression (after Scurvy): 2 more weeks with daily intraperitoneal 1.3 g Na-ascorbate/kg BW/d
[2] = Scurvy (progress), group B: 2 mg ascorbate/kg BW/d, 5 weeks

| SMILES | Plasma Cholesterol (in vivo; [1]) | concentration at 336 h (in vivo; guinea pig, in vivo, ip, 1300 mg/kg/day) | Atheroscl. Lesion (Percent of Aorta Thorac. Surface) (atherosclerotic lesions; [1]) | Plasma Cholesterol (in vivo; Control, group A: 40 mg ascorbate/kg BW/d, 5 weeks) | Plasma Cholesterol (in vivo; [2]) | concentration at 840 h (in vivo; guinea pig, in vivo, 2 mg/kg/day) | concentration at 840 h (in vivo; guinea pig, in vivo, 40 mg/kg/day) | Atheroscl. Lesion (Percent of Aorta Thorac. Surface) (atherosclerotic lesions; [2]) |
| --- | --- | --- | --- | --- | --- | --- | --- | --- |
| O=C1O[C@H]([C@@H](O)CO)C(O)=C1O [Na-ascorbate] | 33 mg/dL | 20600 ng/mL | 19% of Aorta Thorac. Surface |  |  |  |  |  |
| O=C1O[C@H]([C@@H](O)CO)C(O)=C1O [ascorbate] |  |  |  | 39 mg/dL | 54 mg/dL | 3010 ng/mL | 5030 ng/mL | 25% of Aorta Thorac. Surface |
